Data as given in patent publication US4889926A, “Method for the synthesis of (2"R)-4'-O-tetra-hydropyranyladriamycim using 14-chloro-daunomycin as an intermediate” (priority 1987, dated 1989).
Values after ≈ are worked out from the molar mass of the structure shown. Read-outs that look alike come from different tables or passages of the source.

Key:
[1] = tested on: murine leukemia P-388 cells (resistant to adriamycin); test: Growth inhibition by MTT assay, P-388 resistant to adriamycin; assay type: cell-based; conditions: Mus musculus, read-out: IC50 value (50% growth inhibitory concentration), P-388 resistant to adriamycin
Procedure: (§1) Antitumor activities of 14-chlorodaunomycin against various experimental tumors, including murine leukemia P-388 cells, murine leukemia P-388 cells (resistant to adriamycin), murine melanoma B16 cells, human lung cancer PC14 cells and murine leukemia L-1210 cells, were tested and evaluated in vitro by the following procedure:
(§2) The tumor cells were cultivated in RPMI 1640 medium supplemented with 10% fetal calf serum, 10μM 2-hydroxyethyldisulfide and kanamycin at 50 μg/ml (the growth medium), under air containing 5% CO2 at 37° C.
(§3) The tumor cells were incubated at initial densities of 1.5×10^4 cells/ml with murine melanoma B16; 2×10^4 cells/ml with murine leukemia P388, P388/ADR and L-1210; and 2.5×10^4 cells/ml with human lung cancer PC14 cells in the growth medium further containing graded concentrations of each test compound, for 72 hours. The IC50 value, namely the 50% growth inhibitory concentration of the tested compound was evaluated by MTT assay method (see Mosmann, T; "J. Immunol. Methods", 65, 55-63 (1983).

[2] = tested on: murine leukemia P-388 cells; test: Growth inhibition by MTT assay, P-388; assay type: cell-based; conditions: Mus musculus, read-out: IC50 value (50% growth inhibitory concentration), P-388
Procedure: as §1, §2, §3

[3] = tested on: murine melanoma B16 cells; test: Growth inhibition by MTT assay, B16; assay type: cell-based; conditions: Mus musculus, read-out: IC50 value (50% growth inhibitory concentration), B16
Procedure: as §1, §2, §3

[4] = tested on: murine leukemia L-1210 cells; test: Growth inhibition by MTT assay, L-1210; assay type: cell-based; conditions: Mus musculus, read-out: IC50 value (50% growth inhibitory concentration), L-1210
Procedure: as §1, §2, §3

[5] = tested on: human lung cancer PC14 cells; test: Growth inhibition by MTT assay, PC14; assay type: cell-based; conditions: read-out: IC50 value (50% growth inhibitory concentration), PC14
Procedure: as §1, §2, §3

[6] = Storage stability in solid state; assay type: physicochemical; conditions: -10° C.
Description: In the above-mentioned known processes for the preparation of (2"R)-4'-O-THPADM of formula (A) in which daunomycin (DM) of formula (II) is used as the starting compound, and which are effected via the 14-bromodaunomycin of formula (V) as the intermediate product (namely the processes of the aforesaid Japanese patent application first publication "Kokai" Nos. 104,299/80 and 156,300/81), there are formed great amounts of the undesired by-products in the tetrahydropyranylation step so that the intended final compound can be obtained only in a low yield with these prior art processes. The intermediate compound, 14-bromodaunomycin is so unstable that even when it has been stored in its solid state at -10° C. for about 1 week, 14-bromodaunomycin can remain only in such an amount which is as little as about two-thirds of its initial amount before its storage, due to that the amino sugar moiety bonded to the 7-position can be cleaved to bring about the degradation of 14-bromodaunomycin.

tumor = conditions: Japanese patent publication No. 47194/81 and U.S. Pat. No. 4,303,785; cited from earlier work
[7] = tested on: various kinds of experimental tumors; test: Antitumor activity against various experimental tumors (in words); assay type: cell-based
Procedure: as §1, with “procedure: […]” for “procedure:”

[8] = Stability in solution in an organic solvent; assay type: physicochemical
[9] = P388/ADR, 72 hours, MTT assay, 2×10^4 cells/ml
[10] = P388, P-388, 72 hours, MTT assay, 2×10^4 cells/ml
[11] = B16, 72 hours, MTT assay, 1.5×10^4 cells/ml
[12] = L1210, L-1210, 72 hours, MTT assay, 2×10^4 cells/ml
[13] = PC-14, PC14, 72 hours, MTT assay, 2.5×10^4 cells/ml

COc1cccc2c1C(=O)c1c(O)c3c(c(O)c1C2=O)C[C@@](O)(C(=O)CO)C[C@@H]3O[C@H]1C[C@H](N)[C@H](O)[C@H](C)O1 [Adriamycin, adriamycin]
IC50 [1, 9]: 2.06 µg/mL (≈ 3.79 µM)
IC50 [2, 10]: 0.033 µg/mL (≈ 0.0607 µM)
IC50 [3, 11]: 0.101 µg/mL (≈ 0.186 µM)
IC50 [4, 12]: 0.154 µg/mL (≈ 0.283 µM)
IC50 [5, 13]: 0.765 µg/mL (≈ 1.41 µM)

COc1cccc2c1C(=O)c1c(O)c3c(c(O)c1C2=O)C[C@@](O)(C(=O)CBr)C[C@@H]3O[C@H]1C[C@H](N)[C@H](O)[C@H](C)O1 [14-bromodaunomycin]
amount remaining of its initial amount after storage ([6]; 14-bromodaunomycin (comparator intermediate), solid state, about 1 week): about two-thirds

COc1cccc2c1C(=O)c1c(O)c3c(c(O)c1C2=O)C[C@@](O)(C(C)=O)C[C@@H]3O[C@H]1C[C@H](N)[C@H](O)[C@H](C)O1 [Daunomycin, daunomycin]
IC50 [1, 9]: 0.668 µg/mL (≈ 1.27 µM)
IC50 [2, 10]: 0.0163 µg/mL (≈ 0.0309 µM)
IC50 [3, 11]: 0.0449 µg/mL (≈ 0.0851 µM)
IC50 [4, 12]: 0.0655 µg/mL (≈ 0.124 µM)
IC50 [5, 13]: 0.237 µg/mL (≈ 0.449 µM)

COc1cccc2c1C(=O)c1c(O)c3c(c(O)c1C2=O)C[C@@](O)(C(=O)CO)C[C@@H]3O[C@H]1C[C@H](N)[C@H](O[C@@H]2CCCCO2)[C@H](C)O1 [4'-O-tetrahydropyranyladriamycin]
antitumor activity (tumor): has antitumor activity

COc1cccc2c1C(=O)c1c(O)c3c(c(O)c1C2=O)C[C@@](O)(C(=O)CCl)C[C@@H]3O[C@H]1C[C@H](N)[C@H](O)[C@H](C)O1 [14-chlorodaunomycin]
antitumor activity [7]: remarkable antitumor activity
decomposition on storage ([6]; solid form, 1 week or so): no substantial decomposition
IC50 ([1]; P388, 72 h): 0.552 µg/mL (≈ 0.982 µM)
IC50 ([2]; P388, 72 h): 0.0963 µg/mL (≈ 0.171 µM)
IC50 ([3]; B16, 72 h): 0.093 µg/mL (≈ 0.165 µM)
decomposition rate in solution compared with 14-bromodaunomycin ([8]; organic solvent containing some water and an acidic compound, same conditions): considerably smaller than that of 14-bromodaunomycin
stability in solution in an organic solvent ([8]; solution in an organic solvent): somewhat stable
IC50 ([4]; L1210, 72 h): 0.268 µg/mL (≈ 0.477 µM)
IC50 ([5]; PC-14, 72 h): 0.96 µg/mL (≈ 1.71 µM)
